# Earlier results in patent publication US20100222262A1, “SUBSTITUTED 1, 3-CYCLOPENTADIONE ATTENUATED ENDOTHELIAL INFLAMMATION AND ENDOTHELIAL-MONOCYTE INTERACTIONS” (METAPROTEOMICS, LLC, priority 2008, published 2010).
# System: 85 Kinases
# Settings: not given
Molecule,G10 (Gini coefficient),hit rate (>50% Inhibition)
CC[C@H](CO)Nc1nc(NCc2ccccc2)c2ncn(C(C)C)c2n1 [Roscovitine],0.744,10
C[S+]([O-])c1ccc(-c2nc(-c3ccncc3)c(-c3ccc(F)cc3)[nH]2)cc1 (stereo not drawn) [SB203580],0.621,17

# Same assay, conditions: 85 kinases; Concn 0.001 uM
Molecule,G10 (Gini coefficient),hit rate (>50% Inhibition)
COc1cc2ncnc(Nc3cccc(Br)c3)c2cc1OC [PD153035],0.616,0

# Same assay, conditions: 85 kinases; Concn 1 uM
Molecule,G10 (Gini coefficient),hit rate (>50% Inhibition)
O=C1Cc2c([nH]c3ccc([N+](=O)[O-])cc23)-c2ccccc2N1 [Alsterpaullone],0.633,22
CCCCCCOC(=O)[C@]1(O)C[C@@H]2O[C@@]1(C)n1c3ccccc3c3c4c(c5c6ccccc6n2c5c31)C(=O)NC4 [KT5720],0.423,33
O=C(O)c1cc(N(Cc2ccccc2O)Cc2cc(O)ccc2O)ccc1O [Lavendustin A],0.726,0
O=C(O)c1cc(N(Cc2ccccc2O)Cc2ccccc2O)ccc1O [Lavendustin B],0.515,0
CC(C)(C)n1nc(-c2ccc(Cl)cc2)c2c(N)ncnc21 [PP2],0.722,14
Nc1ncnc2c1cnn2-c1ccccc1 [PP3],0.634,0
Cn1cc(C2=C(c3cn(CCCSC(=N)N)c4ccccc34)C(=O)NC2=O)c2ccccc21 [Ro31-8220],0.432,39
CN(C)S(=O)(=O)c1ccc2c(c1)/C(=C/c1cc3c([nH]1)CCCC3)C(=O)N2 [SU6656],0.607,19
CN[C@@H]1C[C@H]2O[C@@](C)([C@@H]1OC)n1c3ccccc3c3c4c(c5c6ccccc6n2c5c31)C(=O)NC4 [Staurosporine],0.093,

# Same assay, conditions: 85 kinases; Concn 10 uM
Molecule,G10 (Gini coefficient),hit rate (>50% Inhibition)
N#CC(C#N)=Cc1ccc(O)c(O)c1 [AG18],0.680,1
N#CC(C#N)=C(N)/C(C#N)=C/c1cc(O)c(O)c(O)c1 [AG183],0.460,14
N#C/C(=C\c1ccc(O)c(O)c1)C(=O)c1ccc(O)c(O)c1 [AG538],0.417,17
CC(C)(C)c1cc(C=C(C#N)C#N)cc(Br)c1O [AG1024],0.568,11
COc1cc2ncc(-c3ccccc3)nc2cc1OC [AG1296],0.498,4
COc1cc2ncnc(Nc3cccc(Cl)c3)c2cc1OC [AG1478],0.500,25
O=C(O[C@@H]1Cc2c(O)cc(O)cc2O[C@@H]1c1cc(O)c(O)c(O)c1)c1cc(O)c(O)c(O)c1 [EGCG],0.495,21
O=c1c(-c2ccc(O)cc2)coc2cc(O)cc(O)c12 [Genistein],0.582,0
O=S(=O)(NCCNC/C=C/c1ccc(Br)cc1)c1cccc2cnccc12 [H89],0.442,34
O=S(=O)(c1cccc2cnccc12)N1CCCNCC1 [HA1077],0.650,19
CO[C@H]1[C@@H](OC)C[C@H](C)[C@@H](OC)C2=CC(=O)C=C(NC(=O)/C(C)=C/C=C\[C@H](OC)[C@@H](OC(N)=O)/C(C)=C/[C@@H]1C)C2=O [Herbimycin A],0.534,0
O=c1cc(O)cc(/C=C/c2ccc(O)c(O)c2)o1 [Hispidin],0.790,2
O=C1c2ccccc2-c2n[nH]c3cccc1c23 [JNK inh II],0.445,35
O=C1NCc2c1c1c3ccccc3[nH]c1c1[nH]c3ccccc3c21 [K252c],0.236,58
O=C(NOCC1CC1)c1ccc(F)c(F)c1Nc1ccc(I)cc1Cl [PD184352],0.802,1
CC(=O)c1c(O)c(C)c(O)c(Cc2c(O)c3c(c(C(=O)/C=C/c4ccccc4)c2O)OC(C)(C)C=C3)c1O [Rottlerin],0.595,3
Oc1ccc(-c2nc(-c3ccncc3)c(-c3ccc(F)cc3)[nH]2)cc1 [SB202190],0.553,29
CCOc1cc(/C=C(\C#N)C(N)=O)cc(CSc2ccccc2)c1O [ST638],0.568,14
C[C@@H](N)[C@H]1CC[C@H](C(=O)Nc2ccncc2)CC1 [Y27632],0.628,13
Cc1ccc(NC(=O)c2cccc(N(C)C)c2)cc1NC(=O)c1ccc(O)cc1 [ZM336372],0.635,11
Calphostin C,0.606,2

# Same assay, conditions: 85 kinases; Concn 50 uM
Molecule,G10 (Gini coefficient),hit rate (>50% Inhibition)
COc1cc(/C=C/C(=O)CC(=O)/C=C/c2ccc(O)c(OC)c2)ccc1O [Curcumin],0.417,38
Cn1cnc2c(NCc3ccccc3)nc(NCCO)nc21 [Olomoucin],0.556,13
